# Source: patent US20220395472A1 (Dermavant Sciences GmbH, priority 2021, published 2022)
# System: adults with plaque psoriasis
# Experiment: Long-term open-label extension study (PSOARING 3): Physician Global Assessment (PGA), treatment episodes, treatment success, remittive effect
# Assay type: in vivo, human
# Method: This extension study consisted of up to 40 weeks of treatment and a 4 week, safety follow up period.
# At the completion of the Week 12 visit of the DB, pivotal Phase 3 study, eligibility of the subjects opting to enroll in this extension study was confirmed. Study visits during the treatment period for all subjects occurred every 4 weeks (±3 days). A phone call was performed at Week 2 (Day 15). Unscheduled visits may have occurred, as needed. Subjects who withdrew from this study before Week 40 returned to the study center for an Early Termination visit. The total duration of this extension study participation was 44 weeks. Subjects in this study were treated as follows based on their PGA score from the Week 12 visit in the DB, pivotal Phase 3 study (Study DMVT 505 3001 or Study DMVT 505 3002).
# The PGA was used to assess the primary efficacy endpoint in this study. The PGA is a clinical tool for assessing the current state/severity of a subject's psoriasis at a given time point. It is a static, 5 point, morphological assessment of overall disease severity, as determined by the Investigator, using the clinical characteristics of erythema, scaling, and plaque thickness/elevation as guidelines; higher PGA scores represent more severe disease (0=clear, 1=almost clear, 2=mild, 3=moderate, and 4=severe). The BSA affected was not considered in scoring of the PGA. Variations of the PGA are frequently used in clinical studies because it is a simple assessment, similar to those used in clinical practice. The PGA was performed first, prior to the % BSA, PASI, and LTS assessments.
# Time to event parameters, such as the time from treatment success to subsequent worsening (PGA≥2) or duration of treatment episode, were summarized by the Kaplan Meier product limit method using OC.
# [1] = Baseline PGA = 3, Tapinarof (Pivotal) group
# [2] = Baseline PGA = 3, Vehicle (Pivotal) group
# [3] = Baseline PGA = 4, Tapinarof (Pivotal) group
# [4] = Baseline PGA = 4, Vehicle (Pivotal) group
structure (smiles),measurement,setting,value
"CC(C)c1c(O)cc(/C=C/c2ccccc2)cc1O [Tapinarof, 3,5-Dihydroxy-4-isopropyl-trans-stilbene]","Total Duration of Treatment Success, Mean (SD)",[1],67.3 (54.20) days
same,"Total Duration of Treatment Success, Median",[1],56.5 days
same,"Average Duration of Episodes, Mean (SD)",[2],174.0 (94.06) days
same,"Average Duration of Episodes, Median",[2],195.0 days
same,"Average Duration of Treatment Success, Mean (SD)",[2],67.1 (57.99) days
same,"Average Duration of Treatment Success, Median",[2],51.0 days
same,"Duration of 1st Episode, Mean (SD)",[2],177.1 (92.70) days
same,"Duration of 1st Episode, Median",[2],195.5 days
same,"Duration of 1st Success, Mean (SD)",[2],70.3 (58.38) days
same,"Duration of 1st Success, Median",[2],56.0 days
same,"Duration of 2nd Episode, Mean (SD)",[2],56.4 (37.29) days
same,"Duration of 2nd Episode, Median",[2],55.5 days
same,"Duration of 2nd Success, Mean (SD)",[2],29.2 (18.23) days
same,"Duration of 2nd Success, Median",[2],28.0 days
same,"Duration of 3rd Episode, Mean (SD)",[2],55.2 (27.44) days
same,"Duration of 3rd Episode, Median",[2],57.0 days
same,"Duration of 3rd Success, Mean (SD)",[2],28.0 (NE) days
same,"Duration of 3rd Success, Median",[2],28.0 days
same,"Duration of 4th Episode, Mean (SD)",[2],1.0 (NE) days
same,"Duration of 4th Episode, Median",[2],1.0 days
same,"Duration of Last Episode, Mean (SD)",[2],171.4 (97.39) days
same,"Duration of Last Episode, Median",[2],195.0 days
same,"Duration of Last Success, Mean (SD)",[2],63.8 (59.74) days
same,"Duration of Last Success, Median",[2],49.0 days
same,"Total Duration of Treatment Episodes, Mean (SD)",[2],186.1 (87.86) days
same,"Total Duration of Treatment Episodes, Median",[2],197.5 days
same,"Total Duration of Treatment Success, Mean (SD)",[2],77.4 (58.26) days
same,"Total Duration of Treatment Success, Median",[2],81.0 days
same,"Average Duration of Episodes, Mean (SD)","Baseline PGA = 4, Overall",187.5 (102.01) days
same,"Average Duration of Episodes, Median","Baseline PGA = 4, Overall",225.0 days
same,"Average Duration of Treatment Success, Mean (SD)","Baseline PGA = 4, Overall",104.5 (56.36) days
same,"Average Duration of Treatment Success, Median","Baseline PGA = 4, Overall",93.0 days
same,"Duration of 1st Episode, Mean (SD)","Baseline PGA = 4, Overall",187.4 (102.04) days
same,"Duration of 1st Episode, Median","Baseline PGA = 4, Overall",225.0 days
same,"Duration of 1st Success, Mean (SD)","Baseline PGA = 4, Overall",104.5 (56.36) days
same,"Duration of 1st Success, Median","Baseline PGA = 4, Overall",93.0 days
same,"Duration of 2nd Episode, Mean (SD)","Baseline PGA = 4, Overall",85.0 (NE) days
same,"Duration of 2nd Episode, Median","Baseline PGA = 4, Overall",85.0 days
same,"Duration of Last Episode, Mean (SD)","Baseline PGA = 4, Overall",187.5 (101.99) days
same,"Duration of Last Episode, Median","Baseline PGA = 4, Overall",225.0 days
same,"Duration of Last Success, Mean (SD)","Baseline PGA = 4, Overall",104.5 (56.36) days
same,"Duration of Last Success, Median","Baseline PGA = 4, Overall",93.0 days
same,"Total Duration of Treatment Episodes, Mean (SD)","Baseline PGA = 4, Overall",191.1 (99.63) days
same,"Total Duration of Treatment Episodes, Median","Baseline PGA = 4, Overall",225.0 days
same,"Total Duration of Treatment Success, Mean (SD)","Baseline PGA = 4, Overall",104.5 (56.36) days
same,"Total Duration of Treatment Success, Median","Baseline PGA = 4, Overall",93.0 days
same,"Average Duration of Episodes, Mean (SD)",[3],132.9 (100.39) days
same,"Average Duration of Episodes, Median",[3],113.0 days
same,"Average Duration of Treatment Success, Mean (SD)",[3],119.5 (79.90) days
same,"Average Duration of Treatment Success, Median",[3],119.5 days
same,"Duration of 1st Episode, Mean (SD)",[3],132.9 (100.39) days
same,"Duration of 1st Episode, Median",[3],113.0 days
same,"Duration of 1st Success, Mean (SD)",[3],119.5 (79.90) days
same,"Duration of 1st Success, Median",[3],119.5 days
same,"Duration of Last Episode, Mean (SD)",[3],132.9 (100.39) days
same,"Duration of Last Episode, Median",[3],113.0 days
same,"Duration of Last Success, Mean (SD)",[3],119.5 (79.90) days
same,"Duration of Last Success, Median",[3],119.5 days
same,"Total Duration of Treatment Episodes, Mean (SD)",[3],132.9(100.39) days
same,"Total Duration of Treatment Episodes, Median",[3],113.0 days
same,"Total Duration of Treatment Success, Mean (SD)",[3],119.5 (79.90) days
same,"Total Duration of Treatment Success, Median",[3],119.5 days
same,"Average Duration of Episodes, Mean (SD)",[4],211.3 (96.08) days
same,"Average Duration of Episodes, Median",[4],267.0 days
same,"Average Duration of Treatment Success, Mean (SD)",[4],89.5 (47.38) days
same,"Average Duration of Treatment Success, Median",[4],89.5 days
same,"Duration of 1st Episode, Mean (SD)",[4],211.3 (96.13) days
same,"Duration of 1st Episode, Median",[4],267.0 days
same,"Duration of 1st Success, Mean (SD)",[4],89.5 (47.38) days
same,"Duration of 1st Success, Median",[4],89.5 days
same,"Duration of 2nd Episode, Mean (SD)",[4],85.0 (NE) days
same,"Duration of 2nd Episode, Median",[4],85.0 days
same,"Duration of Last Episode, Mean (SD)",[4],211.4 (96.04) days
same,"Duration of Last Episode, Median",[4],267.0 days
same,"Duration of Last Success, Mean (SD)",[4],89.5 (47.38) days
same,"Duration of Last Success, Median",[4],89.5 days
same,"Total Duration of Treatment Episodes, Mean (SD)",[4],216.6 (90.82) days
same,"Total Duration of Treatment Episodes, Median",[4],267.0 days
same,"Total Duration of Treatment Success, Mean (SD)",[4],89.5 (47.38) days
same,"Total Duration of Treatment Success, Median",[4],89.5 days
same,PGA 0 - Clear,"Baseline, Overall",78 (10.3) n (%)
same,PGA 1 - Almost Clear,"Baseline, Overall",161 (21.2) n (%)
same,PGA 2 - Mild,"Baseline, Overall",248 (32.7) n (%)
